Reference: US8952192B2, “Phosphorylated and branched dihydroxy-pentane-dione (DPD) analogs as quorum sensing inhibitors in bacteria” (University of Maryland, College Park, priority 2011, dated 2015)

How the values were obtained:
Format in all cases: cell-based
V. harveyi BB170 = test: QS response (bioluminescence), trispecies synthetic ecosystem; details: 40 μM, LM media
Procedure: The effect of isobutyl-DPD or isopropyl-DPD on QS associated bioluminescence production by V. harveyi was recorded by measuring the light production from reporter strain, V. harveyi BB170. The analogs were added at concentrations of (20 μM or 40 μM) to V. harveyi BB170 which was assayed as previously described.
(§1) The S. typhimurium MET708, V. harveyi BB170 and E. coli W3110 pCT6 were each cultured separately overnight in LM medium supplemented with the appropriate antibiotic. V. harveyi BB170, S. typhimurium MET708 and E. coli MDAI-2 were diluted (1:4:8), respectively, into a single 1 ml volume of fresh LM medium without antibiotics. The co-culture was supplemented with either 20 μM or 40 μM analog initially and again after 3 and 5 hours of growth. The V. harveyi luminescence response was measured after 2.5 hours. The S. typhimurium lacZ (β-galactosidase) activity was measured after 4 hours. The E. coli response was determined after 8 hours, by fixing the cells with 1:1 cold 4% paraformaldehyde and using flow cytometric analysis. Samples were analyzed by flow cytometery (FACS Canto II, BD 394 Biosciences), with 20,000 gated events analyzed per sample.

E. coli W3110 pCT6 = test: Trispecies synthetic ecosystem: AI-2 stimulated GFP expression, flow cytometry; details: trispecies co-culture, flow cytometry after 8 hours; 60.7% without analog
Text: To investigate the effect of the DPD analogs in a mixed bacterial environment, a synthetic ecosystem composed of three different bacterial populations was assembled. Specifically, S. typhimurium MET708, V. harveyi BB170 and E. coli W3110 (pCT6), each luxS^+ (Table 2), and each producing their native AI-2 were co-cultured in the same tubes. By design, each species was selected so that a different reporter probe would indicate the specific bacterium's QS response: S. typhimurium (MET708) expresses β-galactosidase; V. harveyi (BB170) elicits bioluminescience; and E. coli (W331) are engineered to synthesize GFP. In this way, their responses can be differentiated and quantified in response to AI-2.
as §1, with “V. harveyi BB170, S. typhimurium MET708 and E. coli MDAI-2 were diluted (1:4:8), respectively, into a single 1 ml volume of fresh LM medium without antibiotics. The co-culture was supplemented with either 20 μM or 40 μM analog initially and again after 3 and 5 hours of growth.” left out

[1] = system: E. coli biofilms (K-12 MG1655); test: Biofilm maturation in the presence of AI-2 analog (microfluidic flow cell, confocal microscopy, COMSTAT)
Procedure: (§2) The E. coli biofilms were formed using the strain K-12 MG1655 ATCC(47076). P. aeruginosa biofilms were formed using wild type strain PAO1. For both strains, overnight cultures were diluted to an OD600 of 0.25, introduced into the microfluidic channel, and incubated with no flow at 37° C. for 2 h. LB (Luria Bertani) growth medium was then continuously flowed into the device at a rate of 10 μL/hr. As needed, this medium was supplemented with various concentrations of analog or antibiotic at specified times. In studies of biofilm inhibition, after 2 hours of cell incubation, the analog diluted in LB medium is flown into the microfluidic channel for 48 hours at 10 μL/hr. In studies of effects on pre-formed biofilms, LB is introduced over the cells at 10 μL/hr for a period of 36 to 48 hours to yield stable biofilms. Then, the analog or analog-antibiotic combination was introduced for an additional 36 to 48 hours.
(§3) Biofilms were stained in situ for microscopy. They were first treated with a Live/Dead bacterial labeling kit (Invitrogen #L7012) in which two labeling components were mixed in a 1:1 ratio to a final volume of 10 μL. The dye was introduced into the channel at 10 μL/hr, the same flow rate as during biofilm growth. This treatment was then followed by 10 μL/hr of a 100 μg/mL calcofluor (Fluorescence Brightener 28, Sigma #F3543) solution for labeling polysaccharides contained in the biofilm matrix. The dyes are fixed by flowing in 3% paraformaldehyde at the same flow rate.
(§4) Labeled samples are imaged using a confocal microscope (Zeiss LSM710). For unpatterned coverslips, Z-stacks were obtained at 7 points in each microfluidic channel, each stack was comprised of 150 slices. For patterned coverslips used while measuring the optical density of the biofilms, two stacks were obtained in each channel (i.e. one at each pinhole). The image stacks were analyzed using COMSTAT, which provides morphological characteristics. Average biofilm thickness and biomass were averaged over the image stacks obtained at each of these 7 data points in the microfluidic channel. Additionally, surface reconstructions of the biofilms were created using Imaris (Bitplane) to aid in visualization of the resulting structures.

[2] = system: pre-formed E. coli biofilms (K-12 MG1655); test: Effects on pre-formed E. coli biofilms (microfluidic flow cell, COMSTAT, optical density)
Procedure: as §2, §3, §4
(§5) The data corresponding to the change in optical density of the biofilms were obtained from the photodiodes using the standard methodologies. Data for each channel (the average of the response of the two photodiodes) was normalized with respect to the optical density at 48 hours; this method reflects that as of 48 hours, the biofilms have been grown under identical conditions although their optical density values may not be identical. Additionally, since the optical density data itself fluctuates as the biofilm grows, the data for each curve was fitted using a Churchill model (Churchill et al, 1972), represented by log N=[f1^−1+f2^−1]^−1 (1)

V. harveyi = test: DPD analogs and representative bacterial species affected (Table 1); parameters: key: x: DPD Analogs and representative bacterial species affected
S. typhimurium = test: as above; parameters: key: x: DPD Analogs and representative bacterial species affected
E. coli = test: as above; parameters: key: x: DPD Analogs and representative bacterial species affected
[3] = system: pre-formed P. aeruginosa biofilms (PAO1); test: Effects on pre-formed P. aeruginosa biofilms (microfluidic flow cell, COMSTAT, optical density)
Procedure: as §2, §3, §4, §5

P. aeruginosa = test: DPD analogs and representative bacterial species affected (Table 1); parameters: key: x: DPD Analogs and representative bacterial species affected
[4] = 100 μM isobutyl-DPD combined with gentamicin 5 μg/ml

Row | Compound | decrease of bioluminescence in V. harveyi (V. harveyi BB170) | QS positive (green, GFP) cells of the E. coli population after analog addition (E. coli W3110 pCT6) | average biofilm biomass ([1]; 40 μM, 48 h, LB only 14 μm^3/μm^2) | average biofilm thickness ([1]; 40 μM, 48 h, LB only 22 μm) | inhibition of biofilm growth ([1]; 40 μM, 48 h continuous exposure in LB) | effect on biofilm thickness of increasing concentration, in words ([1]; 100 μM versus 40 μM) | average biofilm thickness ([2]; 40 μM isobutyl-DPD combined with gentamicin 5 μg/ml) | average biofilm thickness [2, 4] | effect on biofilm biomass, in words [2, 4] | reduction in biofilm thickness [2, 4] | course of biofilm optical density after 48 h, in words ([2]; isobutyl-DPD combined with gentamicin, continuous optical density measurement) | bacterial species affected: V. harveyi (V. harveyi) | bacterial species affected: S. typhimurium (S. typhimurium) | bacterial species affected: E. coli (E. coli) | biofilm reduction ([3]; 100 uM phenyl DPD alone) | biofilm reduction ([3]; gentamicin and 100 uM phenyl DPD combined) | biofilm biomass ([3]; phenyl-DPD 100 μM combined with gentamicin 5 μg/ml, untreated 15 μm^3/μm^2) | biofilm thickness ([3]; phenyl-DPD 100 μM combined with gentamicin 5 μg/ml, untreated 26 μm) | course of biofilm optical density after 48 h, in words ([3]; phenyl-DPD combined with gentamicin, continuous optical density measurement) | bacterial species affected: P. aeruginosa (P. aeruginosa)
1 | CC(C)CC(=O)C(=O)[C@@H](O)CO [Isobutyl-DPD, isobutyl-DPD] | 33% | 0.7% | 3.5 μm^3/μm^2 | 7 μm | ~70% | no further inhibitory effect | 6 μm | 2 μm | nearly complete removal of biomass | more than 80% | reversed biofilm growth | x | x | x | – | – | – | – | – | –
2 | O=C(C(=O)C(O)CO)c1ccccc1 (centres unmarked) [Phenyl-DPD, Phenyl DPD] | – | – | – | – | – | – | – | – | – | – | – | – | – | – | about 40% | ~100% | < 2 μm^3/μm^2 | 2 μm | reversed biofilm growth | x
